From PubChem BioAssay AID330 (DTP/NCI, 2004)
Where “and” joins values, the source holds several entries; their conditions need not be identical. Equal values may be shown once. Inconclusive results and toxic doses are left out. How the source made its calls: active means survival T/C of 150% or more; inactive means T/C below 125% in these data.

Tested on: P388 leukemia ip, CD2F1 mice, survival T/C
Assay: NCI In Vivo Anticancer Drug Screen. Data for tumor model P388 Leukemia (intraperitoneal) in CD2F1 (CDF1) mice
Conditions: endpoint: median survival time, higher = longer survival
Summary of the method: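 Mice carrying the transplanted tumor received test compound or vehicle. Survival was recorded in each group, and the value is the treated-group measurement divided by that of the vehicle-treated control group.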

[1] = dose: 50.0 mg/kg/injection, schedule: Q01DX009 (ip), vehicle: saline
[2] = dose: 100.0 mg/kg/injection, schedule: Q01DX009 (ip), vehicle: saline
[3] = dose: 200.0 mg/kg/injection, schedule: Q01DX009 (ip), vehicle: saline
[4] = dose: 50.0 mg/kg/injection, schedule: Q01DX009 (ip), vehicle: Klucel (hydroxypropylcellulose) (HPC)
[5] = dose: 100.0 mg/kg/injection, schedule: Q01DX009 (ip), vehicle: Klucel (hydroxypropylcellulose) (HPC)
[6] = dose: 200.0 mg/kg/injection, schedule: Q01DX009 (ip), vehicle: Klucel (hydroxypropylcellulose) (HPC)
[7] = dose: 25.0 mg/kg/injection, schedule: Q04DX003 (ip), vehicle: saline with Tween-80
[8] = dose: 50.0 mg/kg/injection, schedule: Q04DX003 (ip), vehicle: saline with Tween-80
[9] = dose: 60.0 mg/kg/injection, schedule: Q01DX005 (ip), vehicle: Klucel (hydroxypropylcellulose) (HPC)
[10] = dose: 60.0 mg/kg/injection, schedule: Q01DX005 (ip), vehicle: saline with Tween-80
[11] = dose: 120.0 mg/kg/injection, schedule: Q01DX005 (ip), vehicle: saline with Tween-80
[12] = dose: 240.0 mg/kg/injection, schedule: Q01DX005 (ip), vehicle: saline with Tween-80
[13] = dose: 50.0 mg/kg/injection, schedule: Q01DX009 (ip), vehicle: saline with Tween-80
[14] = dose: 100.0 mg/kg/injection, schedule: Q01DX009 (ip), vehicle: saline with Tween-80
[15] = dose: 200.0 mg/kg/injection, schedule: Q01DX009 (ip), vehicle: saline with Tween-80
[16] = dose: 60.0 mg/kg/injection, schedule: Q01DX005 (ip), vehicle: saline
[17] = dose: 120.0 mg/kg/injection, schedule: Q01DX005 (ip), vehicle: saline
[18] = dose: 240.0 mg/kg/injection, schedule: Q01DX005 (ip), vehicle: saline
[19] = dose: 25.0 mg/kg/injection, schedule: Q01DX009 (ip), vehicle: saline with Tween-80

Measured: T/C

COc1cc(C2CC(=O)N(c3ccc(C)cc3)C(=O)C2)cc(OC)c1OC
inactive: dose: 25.0 mg/kg/injection, schedule: Q01DX005 (ip), vehicle: Klucel + Tween-80 98 % of control | dose: 50.0 mg/kg/injection, schedule: Q01DX005 (ip), vehicle: Klucel + Tween-80 100 % of control and 105 % of control and 122 % of control | dose: 50.0 mg/kg/injection, schedule: Q01DX009 (ip), vehicle: Klucel + Tween-80 108 % of control | dose: 100.0 mg/kg/injection, schedule: Q01DX005 (ip), vehicle: Klucel + Tween-80 106 % of control and 110 % of control (2×) | dose: 114.0 mg/kg/injection, schedule: Q01DX009 (ip), vehicle: Klucel + Tween-80 117 % of control | dose: 175.0 mg/kg/injection, schedule: Q01DX009 (ip), vehicle: Klucel + Tween-80 122 % of control | dose: 200.0 mg/kg/injection, schedule: Q01DX005 (ip), vehicle: Klucel + Tween-80 110 % of control and 114 % of control and 122 % of control | dose: 264.0 mg/kg/injection, schedule: Q01DX009 (ip), vehicle: Klucel + Tween-80 93 % of control | dose: 400.0 mg/kg/injection, schedule: Q01DX009 (ip), vehicle: Klucel + Tween-80 92 % of control

COC(=N)CCNC(=O)C(O)C(O)C(=O)NCCC(=N)OC (centres undefined)
inactive: [1] 102 % of control | [2] 89 % of control | [3] 105 % of control

O=C1NC(=O)C2C3C=CC(C12)C1C2CCOC2C31 (centres undefined)
inactive: dose: 50.0 mg/kg/injection, schedule: Q01DX005 (ip), vehicle: saline with Tween-80 104 % of control | dose: 100.0 mg/kg/injection, schedule: Q01DX005 (ip), vehicle: saline with Tween-80 100 % of control | dose: 200.0 mg/kg/injection, schedule: Q01DX005 (ip), vehicle: saline with Tween-80 99 % of control

C=CCSc1nc2ccc(NC(=O)CCC(=O)O)cc2s1
inactive: [4] 103 % of control | [5] 111 % of control | [6] 93 % of control

COc1cc(C2NC(=S)NC2=S)ccc1O (centres undefined)
inactive: [7] 109 % of control | [8] 104 % of control | dose: 100.0 mg/kg/injection, schedule: Q04DX003 (ip), vehicle: saline with Tween-80 109 % of control

CC1=NN(c2ccccc2)C(=O)C1C1c2ccccc2S(=O)(=O)c2ccccc21 (centres undefined)
inactive: [9] 97 % of control | dose: 120.0 mg/kg/injection, schedule: Q01DX005 (ip), vehicle: Klucel (hydroxypropylcellulose) (HPC) 87 % of control

COc1cccc(OC)c1C(c1c(OC)cccc1OC)c1c(OC)cccc1OC
inactive: dose: 22.0 mg/kg/injection, schedule: Q04DX003 (ip), vehicle: saline with Tween-80 109 % of control | dose: 33.0 mg/kg/injection, schedule: Q04DX003 (ip), vehicle: saline with Tween-80 113 % of control | dose: 75.0 mg/kg/injection, schedule: Q04DX003 (ip), vehicle: saline with Tween-80 109 % of control

O=C1C2=C(Nc3cc(Cl)ccc3N2)OC1c1c[nH]c2ccc(COc3ccccc3)cc12 (centres undefined)
inactive: [10] 93 % of control | [11] 93 % of control | [12] 89 % of control

CN1NC(=O)c2ccccc2NC1=S
inactive: [4] 104 % of control | [5] 91 % of control | [6] 101 % of control

CS1=C2C(=O)CCCC2=Nc2ccccc21 (centres undefined)
inactive: dose: 50.0 mg/kg/injection, schedule: Q01DX005 (ip), vehicle: saline 97 % of control | dose: 100.0 mg/kg/injection, schedule: Q01DX005 (ip), vehicle: saline 100 % of control

S=P(OC1CC2CCC1C2)(c1ccccc1)c1ccccc1 (centres undefined)
inactive: [13] 100 % of control | [14] 103 % of control | [15] 106 % of control

NC(Cc1c[nH]c(=O)[nH]c1=O)C(=O)O (centres undefined)
inactive: dose: 50.0 mg/kg/injection, schedule: Q01DX005 (ip), vehicle: Klucel (hydroxypropylcellulose) (HPC) 96 % of control | dose: 100.0 mg/kg/injection, schedule: Q01DX005 (ip), vehicle: Klucel (hydroxypropylcellulose) (HPC) 100 % of control | dose: 200.0 mg/kg/injection, schedule: Q01DX005 (ip), vehicle: Klucel (hydroxypropylcellulose) (HPC) 88 % of control

Cc1cc(=O)oc2cc(OC(=O)C(CCCCN)NC(=O)OCc3ccccc3)ccc12 (centres undefined)
inactive: dose: 6.25 mg/kg/injection, schedule: Q01DX009 (ip), vehicle: other 101 % of control | dose: 12.5 mg/kg/injection, schedule: Q01DX009 (ip), vehicle: other 99 % of control | dose: 25.0 mg/kg/injection, schedule: Q01DX009 (ip), vehicle: other 121 % of control | dose: 50.0 mg/kg/injection, schedule: Q01DX009 (ip), vehicle: other 114 % of control | dose: 100.0 mg/kg/injection, schedule: Q01DX009 (ip), vehicle: other 117 % of control

CC(C)(C)C(C)(C)c1ccc(OCCSCCOc2ccc(C(C)(C)C(C)(C)C)cc2)cc1
inactive: [13] 92 % of control | [14] 90 % of control | [15] 87 % of control

C=CCC(NC(=O)CC)C(=O)O (centres undefined)
inactive: [1] 92 % of control | [2] 92 % of control | [3] 103 % of control

N#CC(C#N)=CN1CCCCCC1
inactive: dose: 6.25 mg/kg/injection, schedule: Q04DX003 (ip), vehicle: saline with Tween-80 104 % of control | dose: 12.5 mg/kg/injection, schedule: Q04DX003 (ip), vehicle: saline with Tween-80 100 % of control

N#CN=C(N)N=P(c1ccccc1)(c1ccccc1)c1ccccc1
inactive: dose: 100.0 mg/kg/injection, schedule: Q01DX001 (ip), vehicle: Klucel (hydroxypropylcellulose) (HPC) 97 % of control | dose: 200.0 mg/kg/injection, schedule: Q01DX001 (ip), vehicle: Klucel (hydroxypropylcellulose) (HPC) 100 % of control | dose: 400.0 mg/kg/injection, schedule: Q01DX001 (ip), vehicle: Klucel (hydroxypropylcellulose) (HPC) 91 % of control

COc1cccc(C(c2cc3c(cc2O)OCO3)N2CCN(C(c3cc4c(cc3O)OCO4)c3cccc(OC)c3O)CC2)c1O (centres undefined)
inactive: [16] 98 % of control | [17] 98 % of control | [18] 100 % of control

O=P(O)(O)Oc1ccc(NCCO)cc1
inactive: dose: 50.0 mg/kg/injection, schedule: Q01DX001 (ip), vehicle: saline 107 % of control | dose: 100.0 mg/kg/injection, schedule: Q01DX001 (ip), vehicle: saline 99 % of control | dose: 200.0 mg/kg/injection, schedule: Q01DX001 (ip), vehicle: saline 100 % of control | dose: 400.0 mg/kg/injection, schedule: Q01DX001 (ip), vehicle: saline 100 % of control

CN(C)C1=NC(N(C)C)=C2C=CC=C12
inactive: dose: 15.0 mg/kg/injection, schedule: Q01DX005 (ip), vehicle: Klucel (hydroxypropylcellulose) (HPC) 103 % of control | dose: 30.0 mg/kg/injection, schedule: Q01DX005 (ip), vehicle: Klucel (hydroxypropylcellulose) (HPC) 97 % of control | [9] 96 % of control

CC(C)(C)CC(C)(C)c1ccc(OCCOc2ccc(C(=O)O)cc2)cc1
inactive: dose: 100.0 mg/kg/injection, schedule: Q01DX001 (ip), vehicle: saline sonified 105 % of control | dose: 200.0 mg/kg/injection, schedule: Q01DX001 (ip), vehicle: saline sonified 110 % of control | dose: 400.0 mg/kg/injection, schedule: Q01DX001 (ip), vehicle: saline sonified 110 % of control

COc1ccc(C(F)C(N)C#N)cc1 (centres undefined)
inactive: [16] 109 % of control | [17] 98 % of control | [18] 107 % of control

CCC1C(=O)NC(=O)C1(C)c1ccccc1 (centres undefined)
inactive: [19] 100 % of control and 102 % of control | [13] 100 % of control and 105 % of control | [14] 102 % of control and 103 % of control | [15] 102 % of control and 111 % of control

O=C(CC(=O)C(F)(F)F)c1ccc(-c2ccccc2)cc1
inactive: [19] 110 % of control | [13] 116 % of control | [14] 111 % of control

C=C(C)C#CCN(CCO)C(C)C
inactive: [10] 102 % of control | [11] 98 % of control

CC(C)(C#N)C#N
inactive: [7] 100 % of control | [8] 100 % of control

S=P(Nc1ccccc1)(Nc1ccccc1)c1ccccc1
inactive: [5] 103 % of control | [6] 106 % of control | dose: 400.0 mg/kg/injection, schedule: Q01DX009 (ip), vehicle: Klucel (hydroxypropylcellulose) (HPC) 95 % of control

CN(Cc1ccccc1)C(=O)Nc1c(Cl)cccc1Cl
inactive: [10] 103 % of control | [11] 99 % of control | [12] 95 % of control
